Reference: article PMC6934184, “Selective DNA-PKcs inhibition extends the therapeutic index of localized radiotherapy and chemotherapy” (The Journal of Clinical Investigation, 2019)

Biological target: T1, IRAK1 (Homo sapiens, UniProt P51617)
T1 construct: purchased Thermo Fisher Scientific (Life Technologies) SelectScreen
Test: SelectScreen Adapta
Type: biochemical
Experimental: The in vitro kinase selectivity of NU5455 was determined using the SelectScreen Broad Assay Panel (Thermo Fisher Scientific) involving activity and binding assays (Supplemental Table 1). […] Class IA PI3Ks were measured using the p85α subunit.
Kinase [ATP] % Assay Kinase [ATP] % Assay Kinase [ATP] % Assay Kinase [ATP] % Assay
DNA-PK Km app 98.3 Z LATS2 n/a 4.7 L KIT D820E n/a 1.3 L GSK3B (GSK3 beta) Km app -2.5 Z
PIK3C3 (hVPS34) Km app 85.9 A PRKCZ (PKC zeta) Km app 4.7 Z GRK1 n/a 1.3 L BMPR2 n/a -2.5 L
PIK3C2B (PI3K-C2 beta) 10 28.9 A FGFR1 Km app 4.7 Z BRSK2 n/a 1.2 L CDC42 BPB (MRCKB) Km app -2.5 Z
SNF1LK2 Km app 26.6 Z MINK1 Km app 4.6 Z NUAK1 (ARK5) Km app 1.2 A AMPK (A2/B2/G2) n/a -2.6 L
HCK Km app 18.0 Z CSF1R (FMS) Km app 4.3 Z CDK9/cyclin K n/a 1.0 L PRKG1 Km app -2.7 Z
NEK2 Km app 17.8 Z CSNK1G3 (CK1 gamma 3) Km app 4.2 Z NUAK2 n/a 1.0 L KIT T670E n/a -2.8 L
ALK Km app 17.3 Z STK32C (YANK3) n/a 4.2 L CDK2/cyclin O n/a 0.9 L ERBB4 (HER4) Km app -2.8 Z
FGFR3 K650M n/a 16.5 L STK22D (TSSK1) Km app 4.2 Z CAMKK2 (CaMKK beta) n/a 0.9 L PLK4 n/a -2.8 L
SIK3 n/a 16.1 L TAOK3 (JIK) n/a 4.2 L FGFR3 Km app 0.9 Z GRK7 Km app -3.0 Z
LYN A Km app 15.2 Z RPS6KA4 (MSK2) Km app 4.2 Z ULK2 n/a 0.9 L MAPKAPK2 Km app -3.1 Z
BMPR1B (ALK6) n/a 14.5 L PTK2B (FAK2) Km app 4.2 Z KIT D816V n/a 0.9 L FGFR4 Km app -3.1 Z
INSRR (IRR) Km app 14.1 Z CLK2 Km app 4.1 Z CAMK1 (CaMK1) 10 0.8 A CASK n/a -3.1 L
PLK2 Km app 14.1 Z STK24 (MST3) Km app 4.1 Z PTK6 (Brk) Km app 0.7 Z GRK5 Km app -3.2 Z
PRKACA (PKA) Km app 14.0 Z CAMK1D (CaMKI delta) Km app 4.1 Z CAMK2B (CaMKII beta) Km app 0.7 Z EGFR (ErbB1) T790M Km app -3.3 Z
EIF2AK2 (PKR) n/a 13.3 L INSR Km app 4.1 Z ACVR1 (ALK2) n/a 0.7 L PAK4 Km app -3.3 Z
PRKX Km app 12.5 Z IRAK1 Km app 4.0 A ABL1 H396P n/a 0.6 L DAPK3 (ZIPK) Km app -3.4 Z
FGR Km app 12.1 Z SRC N1 Km app 3.9 Z MERTK (cMER) A708S n/a 0.6 L RET M918T n/a -3.5 L
CLK1 Km app 11.7 Z SRPK2 Km app 3.9 Z MAPKAPK5 (PRAK) Km app 0.6 Z PRKCQ (PKC theta) Km app -3.7 Z
MARK3 Km app 11.4 Z RPS6KA6 (RSK4) Km app 3.8 Z AKT1 (PKB alpha) Km app 0.5 Z CAMKK1 (CAMKKA) n/a -3.8 L
PDGFRB (PDGFR beta) Km app 11.0 Z GRK6 Km app 3.7 Z NTRK3 (TRKC) Km app 0.4 Z FLT3 D835Y Km app -3.9 Z
PRKCN (PKD3) Km app 10.7 Z PKN1 (PRK1) Km app 3.6 Z ZAP70 Km app 0.3 Z ROCK2 Km app -4.1 Z
STK16 (PKL12) n/a 10.5 L MAP3K8 (COT) 100 3.5 Z CSNK1A1 (CK1 alpha 1) Km app 0.3 Z CHUK (IKK alpha) Km app -4.2 A
FES (FPS) Km app 10.4 Z FLT4 (VEGFR3) Km app 3.5 Z MYLK (MLCK) n/a 0.2 L AXL Km app -4.2 Z
ABL1 Km app 10.4 Z GRK4 Km app 3.5 Z MKNK2 (MNK2) n/a 0.2 L PIM2 Km app -4.3 Z
MUSK Km app 10.3 Z FRK (PTK5) Km app 3.4 Z AMPK (A1/B1/G3) n/a 0.2 L PAK1 Km app -4.4 Z
MAPK1 (ERK2) Km app 10.1 Z FYN A n/a 3.3 L MAP3K2 (MEKK2) n/a 0.1 L BMPR1A (ALK3) n/a -4.4 L
BRAF 100 9.9 Z CDK1/cyclin A2 n/a 3.3 L CDK8/cyclin C n/a 0.1 L STK4 (MST1) Km app -4.4 Z
IGF1R Km app 9.7 Z KIT V559D T670I n/a 3.1 L MARK2 Km app 0.1 Z PRKCH (PKC eta) Km app -4.6 Z
MAPK14 (p38 alpha) Km app 9.7 Z SPHK2 10 3.1 A ICK n/a 0.0 L SGKL (SGK3) Km app -4.6 Z
LCK Km app 9.6 Z FGFR3 G697C n/a 3.1 L FGFR2 Km app 0.0 Z PI4KB (PI4K beta) Km app -4.7 A
MAPK11 (p38 beta) Km app 9.5 Z RIPK2 n/a 3.1 L AKT2 (PKB beta) Km app 0.0 Z PRKCE (PKC epsilon) Km app -4.9 Z
SRC Km app 9.5 Z PAK6 Km app 3.0 Z EPHB2 Km app -0.1 Z PHKG1 Km app -5.0 Z
CHEK1 (CHK1) Km app 9.3 Z LYN B Km app 3.0 Z TGFBR2 n/a -0.1 L PDGFRA D842V Km app -5.0 Z
CAMK2D (CaMKII delta) Km app 9.3 Z DAPK2 n/a 2.9 L TEK (Tie2) Km app -0.1 Z PRKG2 (PKG2) Km app -5.1 Z
PLK1 Km app 9.2 Z EPHA4 Km app 2.9 Z AURKA (Aurora A) Km app -0.1 Z TYRO3 (RSE) Km app -5.1 Z
RET Y791F Km app 9.2 Z PIK3CG (p110 gamma) Km app 2.9 A KIT D816H n/a -0.2 L TAOK2 (TAO1) Km app -5.1 Z
FLT3 Km app 9.1 Z HIPK1 (Myak) Km app 2.8 Z KIT N822K n/a -0.2 L EPHB4 Km app -5.3 Z
MAPK10 (JNK3) 100 9.0 Z ADRBK2 (GRK3) Km app 2.8 Z PRKACG (PRKAC gamma) n/a -0.2 L AURKC (Aurora C) Km app -5.4 Z
CSNK2A2 (CK2 alpha 2) Km app 8.7 Z STK17B (DRAK2) n/a 2.7 L TEK (TIE2) Y1108F n/a -0.3 L JAK1 Km app -5.7 Z […]

T1 sequence (P51617 whole entry): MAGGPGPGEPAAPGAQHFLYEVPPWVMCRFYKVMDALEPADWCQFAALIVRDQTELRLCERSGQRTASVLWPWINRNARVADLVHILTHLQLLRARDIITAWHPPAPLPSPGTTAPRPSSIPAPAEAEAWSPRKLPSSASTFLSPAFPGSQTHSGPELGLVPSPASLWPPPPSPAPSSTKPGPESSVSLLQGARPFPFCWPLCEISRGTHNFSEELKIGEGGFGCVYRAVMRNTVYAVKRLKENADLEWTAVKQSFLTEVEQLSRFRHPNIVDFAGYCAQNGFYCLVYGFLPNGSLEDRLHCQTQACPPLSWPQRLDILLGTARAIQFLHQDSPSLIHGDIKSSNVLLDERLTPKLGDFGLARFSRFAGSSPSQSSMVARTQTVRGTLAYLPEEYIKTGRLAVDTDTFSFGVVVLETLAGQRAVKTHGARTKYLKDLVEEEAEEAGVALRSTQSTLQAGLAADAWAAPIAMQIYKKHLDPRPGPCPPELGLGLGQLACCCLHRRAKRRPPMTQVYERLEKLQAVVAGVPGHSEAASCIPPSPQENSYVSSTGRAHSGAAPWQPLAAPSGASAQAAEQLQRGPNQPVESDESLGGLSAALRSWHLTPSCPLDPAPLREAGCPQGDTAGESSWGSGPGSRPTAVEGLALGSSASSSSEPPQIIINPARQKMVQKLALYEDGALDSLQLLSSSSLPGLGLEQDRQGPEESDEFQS

SMILES: CN(C(=O)CN1CCOCC1)c1ccc2sc3c(-c4cccc5c(=O)cc(N6CC7CCC(C6)O7)oc45)cccc3c2c1 [NU5455]
- inhibition at 1 µM: 4%
